Test: Solubilization of Paclitaxel in nanostructured phase interior
Assay type: physicochemical
Description: A nanostructured liquid phase containing the antineoplastic drug Paclitaxel was prepared by solubilizing 0.045 grams of Paclitaxel, 0.57 grams of eugenol, […] of soy lecithin (Epikuron 200), 0.33 grams of glycerol, and 0.06 grams of cupric nitrate with 0.61 grams of methanol, and then evaporating off the methanol in an evaporating dish, with stirring during evaporation. An glycerol-rich upper solution was prepared by dissolving 0.09 grams of potassium iodide, 0.05 grams of Pluronic F-68, 0.44 grams of water and 1.96 grams of glycerol. After overlaying the upper phase, the system was sonicated, resulting in the dispersing of Paclitaxel-containing, nanostructured liquid phase into microparticles coated with crystalline iodine. […] The loading of Paclitaxel in the particle interior was quite high, namely on the order of 3 wt %, which in this case was so high that precipitation of some of the Paclitaxel within the interior of each particle may occur since the solubilization of Paclitaxel in this cubic phase at this high loading was metastable. […]

CC(=O)O[C@H]1C(=O)[C@@]2(C)[C@H]([C@H](OC(=O)c3ccccc3)[C@]3(O)C[C@H](OC(=O)[C@H](O)[C@@H](NC(=O)c4ccccc4)c4ccccc4)C(C)=C1C3(C)C)[C@]1(OC(C)=O)CO[C@@H]1C[C@@H]2O [Paclitaxel]
concentration of Paclitaxel in the interior at which solubilization is truly stable (thermodynamic equilibrium) (eugenol/soy lecithin/glycerol nanostructured phase of Example 36): ≤ 0.7%
time taken for precipitation of Paclitaxel at metastable loading (loading on the order of 3 wt % of interior): hours or even days

— patent US7105229B2, “Coated particles, methods of making and using” (priority 1997, dated 2006)
